Assay results as given in ChEMBL document CHEMBL4888484, “Replenishing the malaria drug discovery pipeline: Screening and hit evaluation of the MMV Hit Generation Library 1 (HGL1) against asexual blood stage Plasmodium falciparum ,using a nano luciferase reporter read-out” (2022).

Columns and labels:
Plasmodium falciparum [1] = experiment: Hit confirmation in dose-response curve in NF54 nanoGlo assay, at 72h; format: functional, organism-based, Erythrocyte; design: timepoint 72 hour; conditions: Plasmodium falciparum, NF54, Erythrocyte, 72 h
Plasmodium falciparum [2] = experiment: Hit confirmation in dose-response curve in NF54 pLDH assay, at 72h; format: functional, organism-based; design: timepoint 72 hour; conditions: NF54, Erythrocyte
Plasmodium falciparum [3] = experiment: Hit confirmation in dose-response curve in NF54 nanoGlo assay, at 12h; format: functional, organism-based, Erythrocyte; design: timepoint 12 hour; conditions: Plasmodium falciparum, NF54, Erythrocyte, 12 h
Plasmodium falciparum [4] = experiment: Hit confirmation in dose-response curve in Dd2 pLDH assay, at 72h; format: functional, organism-based; design: timepoint 72 hour; conditions: Dd2, Erythrocyte
[5] = Hit confirmation in dose-response curve in HepG2 cytotoxicity assay, at 72h; format: toxicity, cell-based; design: timepoint 72 hour; conditions: human, HepG2 cells

COc1ccc(-c2cc3nc(C)cc(N4CCN(C/C=C/c5ccccc5)CC4)n3n2)cc1OC
IC50 (Plasmodium falciparum [1]): 2.24 µM | IC50 (Plasmodium falciparum [2]): 7.41 µM | IC50 (Plasmodium falciparum [3]): 4.9 µM | IC50 (Plasmodium falciparum [4]): 5.62 µM | IC50 at 72 h [5]: > 10 µM

CCn1cc(-c2nc(-c3ccccc3C)no2)c(=O)c2cc(F)c(N3CCOCC3)cc21
IC50 (Plasmodium falciparum [1]): 3.55 µM | IC50 (Plasmodium falciparum [2]): 7.08 µM | IC50 (Plasmodium falciparum [3]): > 10 µM | IC50 (Plasmodium falciparum [4]): 4.9 µM | IC50 at 72 h [5]: > 10 µM

CCOc1cc(C(=O)Nc2ccc3nc4c(c(Nc5ccc(OC)c(OC)c5)c3c2)CCCC4)cc(OCC)c1OCC
IC50 (Plasmodium falciparum [1]): 1.38 µM | IC50 (Plasmodium falciparum [2]): 3.16 µM | IC50 (Plasmodium falciparum [3]): 2.45 µM | IC50 (Plasmodium falciparum [4]): 1.78 µM | IC50 at 72 h [5]: > 10 µM

COc1cc([C@H](CC(=O)NC2CCN(Cc3ccccc3)CC2)N2Cc3ccccc3C2=O)cc(OC)c1OC
IC50 (Plasmodium falciparum [1]): 2.4 µM | IC50 (Plasmodium falciparum [2]): 2.75 µM | IC50 (Plasmodium falciparum [3]): 5.75 µM | IC50 (Plasmodium falciparum [4]): 3.72 µM | IC50 at 72 h [5]: > 10 µM

c1ccc(C(c2ccccc2)N2CCN(c3nn4cnnc4c4ccccc34)CC2)cc1
IC50 (Plasmodium falciparum [1]): 1.74 µM | IC50 (Plasmodium falciparum [2]): 3.24 µM | IC50 (Plasmodium falciparum [3]): 2.69 µM | IC50 (Plasmodium falciparum [4]): 2.82 µM | IC50 at 72 h [5]: > 10 µM

CC(=O)Nc1c(-c2ccc(C)cc2)c(C)nn1-c1ccc(C(=O)Nc2cc(C)ccn2)cc1
IC50 (Plasmodium falciparum [1]): 2.75 µM | IC50 (Plasmodium falciparum [2]): 9.55 µM | IC50 (Plasmodium falciparum [3]): > 10 µM | IC50 (Plasmodium falciparum [4]): 7.41 µM | IC50 at 72 h [5]: > 10 µM

CCN(C(=O)Cn1cc(-c2ccccc2)c2ncn(CC)c(=O)c21)c1ccccc1
IC50 (Plasmodium falciparum [1]): 0.759 µM | IC50 (Plasmodium falciparum [2]): > 10 µM | IC50 (Plasmodium falciparum [3]): 0.363 µM | IC50 (Plasmodium falciparum [4]): > 10 µM | IC50 at 72 h [5]: > 10 µM

COc1ccc(CC(=O)NCCn2c(C(F)(F)F)nc3ccccc32)cc1
IC50 (Plasmodium falciparum [1]): 2.57 µM | IC50 (Plasmodium falciparum [2]): > 10 µM | IC50 (Plasmodium falciparum [3]): 1.62 µM | IC50 (Plasmodium falciparum [4]): > 10 µM | IC50 at 72 h [5]: > 10 µM

Cc1nn(-c2nc3ccccc3[nH]2)c2c1[C@@H](c1cccnc1)CC(=O)N2
IC50 (Plasmodium falciparum [1]): 1.55 µM | IC50 (Plasmodium falciparum [2]): 6.46 µM | IC50 (Plasmodium falciparum [3]): 2.19 µM | IC50 (Plasmodium falciparum [4]): > 10 µM | IC50 at 72 h [5]: > 10 µM

COc1ccc(CNc2nc(-c3nnc(-c4ccccc4)o3)nc3ccccc23)cc1
IC50 (Plasmodium falciparum [1]): 3.02 µM | IC50 (Plasmodium falciparum [2]): > 10 µM | IC50 (Plasmodium falciparum [3]): 0.776 µM | IC50 (Plasmodium falciparum [4]): > 10 µM | IC50 at 72 h [5]: > 10 µM

COc1ccc(-c2c(C)nn3c(N4CCC(C(=O)NC5CC5)CC4)cc(C)nc23)cc1OC
IC50 (Plasmodium falciparum [1]): 2.69 µM | IC50 (Plasmodium falciparum [2]): > 10 µM | IC50 (Plasmodium falciparum [3]): 1.95 µM | IC50 (Plasmodium falciparum [4]): > 10 µM | IC50 at 72 h [5]: > 10 µM

COc1ccc2c(c1)OC13CCN(C)CC1C2C(C(=O)c1ccccc1OC)C(=O)N3 (stereo not given)
IC50 (Plasmodium falciparum [1]): 2 µM | IC50 (Plasmodium falciparum [2]): > 10 µM | IC50 (Plasmodium falciparum [3]): 1.05 µM | IC50 (Plasmodium falciparum [4]): > 10 µM | IC50 at 72 h [5]: > 10 µM

O=c1c2ccccc2nc2cc(-c3ccc(O)cc3)c(-c3ccccc3)nn12
IC50 (Plasmodium falciparum [1]): 2.14 µM | IC50 (Plasmodium falciparum [2]): > 10 µM | IC50 (Plasmodium falciparum [3]): 3.63 µM | IC50 (Plasmodium falciparum [4]): > 10 µM | IC50 at 72 h [5]: > 10 µM

Cn1c(=O)c2c(-c3ccc(Cl)cc3)n(-c3cccc4cccc(N)c34)cc2n(C)c1=O
IC50 (Plasmodium falciparum [1]): > 10 µM | IC50 (Plasmodium falciparum [2]): 0.0182 µM | IC50 (Plasmodium falciparum [3]): > 10 µM | IC50 (Plasmodium falciparum [4]): > 10 µM | IC50 at 72 h [5]: > 10 µM

COc1ccc(-c2cc3ncc(C(=O)c4cc(Cl)ccc4O)cn3n2)cc1
IC50 (Plasmodium falciparum [1]): 2.29 µM | IC50 (Plasmodium falciparum [2]): 3.89 µM | IC50 (Plasmodium falciparum [3]): 7.24 µM | IC50 (Plasmodium falciparum [4]): 3.63 µM | IC50 at 72 h [5]: > 10 µM

CC1CCN(c2nccnc2Oc2ccc(C(=O)NCc3ccccc3Cl)cc2)CC1
IC50 (Plasmodium falciparum [1]): 2.45 µM | IC50 (Plasmodium falciparum [2]): 9.55 µM | IC50 (Plasmodium falciparum [3]): > 10 µM | IC50 (Plasmodium falciparum [4]): 6.61 µM | IC50 at 72 h [5]: > 10 µM

Cc1ccc2c(c1)c1c(n2S(=O)(=O)c2ccc(C(C)(C)C)cc2)CCCN(C)C1
IC50 (Plasmodium falciparum [1]): 1.48 µM | IC50 (Plasmodium falciparum [2]): 2.29 µM | IC50 (Plasmodium falciparum [3]): > 10 µM | IC50 (Plasmodium falciparum [4]): 1.35 µM | IC50 at 72 h [5]: > 10 µM

CCNc1nc(C)cc(Nc2ccc(NC(=O)c3cc(C)ccc3C)cc2)n1
IC50 (Plasmodium falciparum [1]): 0.324 µM | IC50 (Plasmodium falciparum [2]): 0.776 µM | IC50 (Plasmodium falciparum [3]): 0.457 µM | IC50 (Plasmodium falciparum [4]): 0.631 µM | IC50 at 72 h [5]: > 10 µM

Cc1oc(-c2ccc(C(=O)N3CCN(c4ccccc4)CC3)cc2)nc1CN1CCC(C)CC1
IC50 (Plasmodium falciparum [1]): 2.14 µM | IC50 (Plasmodium falciparum [2]): 3.39 µM | IC50 (Plasmodium falciparum [3]): 2.34 µM | IC50 (Plasmodium falciparum [4]): > 10 µM | IC50 at 72 h [5]: > 10 µM

Cc1ccc(C2=C[C@@H](c3ccc(Cl)cc3)n3nc(NC(=O)c4ccccc4)nc3N2)cc1
IC50 (Plasmodium falciparum [1]): 1.74 µM | IC50 (Plasmodium falciparum [2]): 3.47 µM | IC50 (Plasmodium falciparum [3]): 2.14 µM | IC50 (Plasmodium falciparum [4]): 2.63 µM | IC50 at 72 h [5]: > 10 µM

CCN(CC)c1ccc(C(=O)Nc2ccc3nc(N4CCCC4)cc(C)c3c2)cc1
IC50 (Plasmodium falciparum [1]): 2 µM | IC50 (Plasmodium falciparum [2]): 3.63 µM | IC50 (Plasmodium falciparum [3]): 4.27 µM | IC50 (Plasmodium falciparum [4]): 3.63 µM | IC50 at 72 h [5]: > 10 µM

COc1ccc(C(=O)N(C(=O)c2ccc(OC)cc2)c2c3c(nc4ccccc24)CCCC3)cc1
IC50 (Plasmodium falciparum [1]): 2.29 µM | IC50 (Plasmodium falciparum [2]): 4.9 µM | IC50 (Plasmodium falciparum [3]): 3.24 µM | IC50 (Plasmodium falciparum [4]): 3.89 µM | IC50 at 72 h [5]: > 10 µM

CCCN(CCC)CCN1C(=O)[C@@H]2C(C(=O)Nc3cc(Cl)cc(Cl)c3)[C@@H]3C=C[C@]2(O3)C1C(=O)NC1CCCCC1 (stereo not given in full)
IC50 (Plasmodium falciparum [1]): 2.51 µM | IC50 (Plasmodium falciparum [2]): 3.72 µM | IC50 (Plasmodium falciparum [3]): > 10 µM | IC50 (Plasmodium falciparum [4]): 3.02 µM | IC50 at 72 h [5]: > 10 µM
